What was measured:
[1] = target: T1, ERα (Homo sapiens, UniProt P03372); assay: fluorescence polarization competition, displacement of fluorescent estrogen ES2 (Beacon […]); type: binding; conditions: 1 nM ES2 tracer, relative to estradiol = 100
T1 construct: gene ESR1; isolated recombinant human ERα (Invitrogen)
T1 sequence (P03372 1-595): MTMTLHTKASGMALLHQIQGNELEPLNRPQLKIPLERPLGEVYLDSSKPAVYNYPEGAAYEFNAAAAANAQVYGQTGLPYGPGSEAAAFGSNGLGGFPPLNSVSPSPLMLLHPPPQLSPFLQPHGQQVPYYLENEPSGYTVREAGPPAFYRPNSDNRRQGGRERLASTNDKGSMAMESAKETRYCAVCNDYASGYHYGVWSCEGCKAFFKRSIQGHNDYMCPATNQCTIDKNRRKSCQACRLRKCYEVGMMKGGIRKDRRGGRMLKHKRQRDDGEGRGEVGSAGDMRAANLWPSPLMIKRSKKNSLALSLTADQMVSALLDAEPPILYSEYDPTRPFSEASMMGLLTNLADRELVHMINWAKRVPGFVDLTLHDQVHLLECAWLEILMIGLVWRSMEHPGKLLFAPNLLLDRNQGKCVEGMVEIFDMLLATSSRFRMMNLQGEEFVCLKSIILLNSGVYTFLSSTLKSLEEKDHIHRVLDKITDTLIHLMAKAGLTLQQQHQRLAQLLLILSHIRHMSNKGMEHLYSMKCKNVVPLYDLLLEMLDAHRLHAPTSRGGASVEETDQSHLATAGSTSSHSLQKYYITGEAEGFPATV

[2] = target: T2, ERβ (Homo sapiens, UniProt Q92731); assay: as above; type: binding; conditions: 1 nM ES2 tracer, relative to estradiol = 100
T2 construct: gene ESR2; isolated recombinant human ERβ (Invitrogen)
T2 sequence (Q92731 whole entry): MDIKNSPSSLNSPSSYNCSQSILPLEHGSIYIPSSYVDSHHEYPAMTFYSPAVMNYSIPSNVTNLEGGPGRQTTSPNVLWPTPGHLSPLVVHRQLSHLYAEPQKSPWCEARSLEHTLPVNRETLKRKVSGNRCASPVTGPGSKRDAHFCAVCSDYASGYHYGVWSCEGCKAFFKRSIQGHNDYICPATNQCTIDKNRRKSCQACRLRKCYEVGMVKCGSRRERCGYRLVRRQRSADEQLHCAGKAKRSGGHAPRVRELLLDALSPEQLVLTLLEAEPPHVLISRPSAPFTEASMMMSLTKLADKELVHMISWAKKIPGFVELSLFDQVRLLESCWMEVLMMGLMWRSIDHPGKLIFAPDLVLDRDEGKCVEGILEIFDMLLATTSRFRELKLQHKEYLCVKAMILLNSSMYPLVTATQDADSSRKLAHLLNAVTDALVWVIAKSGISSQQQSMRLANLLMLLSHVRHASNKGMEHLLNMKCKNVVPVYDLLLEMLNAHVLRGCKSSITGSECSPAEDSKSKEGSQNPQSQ

CCC(=C(c1ccc(O)cc1)c1ccc(C(=O)O)cc1)c1ccc(O)cc1 (mixture of isomers) [compound 10, 4-[1,2-bis-(4-hydroxy-phenyl)-but-1-enyl]-benzoic acid]
RBAα^a ([1]; E/Z isomer tested not stated): 12.2 ± 2.3
RBAβ^a ([2]; E/Z isomer tested not stated): 16.3 ± 3.9

CC/C(=C(\c1ccc(O)cc1)c1ccc(OC(=O)CCl)cc1)c1ccc(O)cc1 [6a, Z-Chloro-acetic acid 4-[1,2 bis-(4-hydroxy-phenyl)-but-1-enyl]-phenyl ester]
RBAα^a [1]: 120.08 ± 8.5
RBAβ^a [2]: 62.14 ± 4.3

CC/C(=C(\c1ccc(O)cc1)c1ccc(OC(=O)CBr)cc1)c1ccc(O)cc1 [6b, Z-Bromo-acetic acid 4-[1,2 bis-(4-hydroxy-phenyl)-but-1-enyl]-phenyl ester]
RBAα^a [1]: 96.37 ± 7.2
RBAβ^a [2]: 82.39 ± 4.9

CC/C(=C(\c1ccc(O)cc1)c1ccc(OC(=O)CN(C)C)cc1)c1ccc(O)cc1 [8a, Z-Dimethylamino-acetic acid 4-[1,2-bis-(4-hydroxy-phenyl)-but-1-enyl]-phenyl ester]
RBAα^a [1]: 101.35 ± 10.2
RBAβ^a [2]: 72.72 ± 2.1

CC/C(=C(\c1ccc(O)cc1)c1ccc(OC(=O)CN(CC)CC)cc1)c1ccc(O)cc1 [8b, Z-Diethylamino-acetic acid 4-[1,2-bis-(4-hydroxy-phenyl)-but-1-enyl]-phenyl ester]
RBAα^a [1]: 108.12 ± 11.9
RBAβ^a [2]: 77.37 ± 4.5

CC/C(=C(\c1ccc(O)cc1)c1ccc(OC(=O)CN2CCOCC2)cc1)c1ccc(O)cc1 [8c, Z-Morpholin-4-yl-acetic acid 4-[1,2-bis-(4-hydroxy-phenyl)-but-1-enyl]-phenyl ester]
RBAα^a [1]: 8.06 ± 0.9
RBAβ^a [2]: 16.79 ± 1.4

CC/C(=C(\c1ccc(O)cc1)c1ccc(C(=O)NCCBr)cc1)c1ccc(O)cc1 [compound 13, (E)-4-[1,2-bis-(4-hydroxy-phenyl)-but-1-enyl]-n-(2-bromo-ethyl)-benzamide]
RBAα^a [1]: 17.4 ± 3.0
RBAβ^a [2]: 8.40 ± 2.5

CC/C(=C(\c1ccc(O)cc1)c1ccc(C(=O)NCCCBr)cc1)c1ccc(O)cc1 [compound 14, (E)-4-[1,2-bis-(4-hydroxy-phenyl)-but-1-enyl]-n-(3-bromo-propyl)-benzamide]
RBAα^a [1]: 7.94 ± 0.6
RBAβ^a [2]: 6.15 ± 0.6
